Assay results published in patent US6486146B1, “Cancer accelerants and phase synchronization methods” (priority 2000, dated 2002).
Read-outs that look alike come from different tables or passages of the source.

Columns and labels:
[1] = tested on: gastrointestinal epithelial cells; test: Expected kill of gastrointestinal epithelium from terminal half life versus cell cycle time
colon cancer tumor = test: Mathematical model of tumor size until lethal burden using 32% kill rate; conditions: at both doses (125 mg and 100 mg), inferred from fit of the model to observed survival
colon cancer = conditions: cited from earlier work
topoisomerase I = molecular target: T1, topoisomerase I (Homo sapiens, UniProt P11387); conditions: SN-38 versus irinotecan; cited from earlier work
T1 sequence (P11387 1-765): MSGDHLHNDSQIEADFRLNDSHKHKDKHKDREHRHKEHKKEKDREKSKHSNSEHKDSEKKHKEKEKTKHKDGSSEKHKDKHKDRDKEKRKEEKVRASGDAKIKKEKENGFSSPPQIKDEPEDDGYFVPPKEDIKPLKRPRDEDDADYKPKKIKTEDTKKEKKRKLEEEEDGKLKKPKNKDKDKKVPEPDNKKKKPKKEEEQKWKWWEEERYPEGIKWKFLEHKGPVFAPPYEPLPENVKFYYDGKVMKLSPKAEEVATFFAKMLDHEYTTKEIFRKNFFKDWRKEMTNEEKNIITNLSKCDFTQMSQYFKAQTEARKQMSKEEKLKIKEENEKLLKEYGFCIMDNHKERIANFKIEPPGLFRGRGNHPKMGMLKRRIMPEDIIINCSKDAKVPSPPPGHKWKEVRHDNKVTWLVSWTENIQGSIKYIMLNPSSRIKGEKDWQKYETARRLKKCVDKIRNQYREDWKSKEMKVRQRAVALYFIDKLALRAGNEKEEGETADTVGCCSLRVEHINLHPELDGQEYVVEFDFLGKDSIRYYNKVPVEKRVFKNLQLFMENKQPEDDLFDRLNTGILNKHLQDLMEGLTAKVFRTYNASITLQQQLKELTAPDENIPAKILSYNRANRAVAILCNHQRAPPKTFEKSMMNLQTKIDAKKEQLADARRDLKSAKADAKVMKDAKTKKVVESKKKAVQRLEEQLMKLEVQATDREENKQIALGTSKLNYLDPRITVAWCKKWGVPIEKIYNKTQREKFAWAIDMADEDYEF

[2] = tested on: metastatic breast cancer that possesses estrogen receptors; test: Example 4 patient, prior art doxorubicin regimen, tumor size; assay type: in vivo; conditions: 30 mg/m2 once per week for 4 weeks, 3 cycles; illustrative patient example

## CCc1c2c(nc3ccc(OC(=O)N4CCC(N5CCCCC5)CC4)cc13)-c1cc3c(c(=O)n1C2)COC(=O)[C@]3(O)CC [Camptosar, irinotecan]
[1]; present invention LD 60
  mortality to gastrointestinal epithelium: 65%
[1]; prior art LD 125 mg
  gastrointestinal epithelium killed: 95%
Colon cancer tumor
  S-Phase kill rate: ~100%
Colon cancer; 100 mg once every 7 days for 4 weeks, 2 weeks off, 2 cycles, months x 30 days
  median survival observed: 279 days
Colon cancer; 100 mg regimen
  median survival observed: 9.3 mo.
Colon cancer; 125 mg once every 7 days for 4 weeks, 2 weeks off, 3 cycles, months x 30 days
  median survival observed: 321 days
Colon cancer; 125 mg regimen
  median survival observed: 10.7 mo.

## CCc1c2c(nc3ccc(O)cc13)-c1cc3c(c(=O)n1C2)COC(=O)[C@]3(O)CC [SN-38]
Topoisomerase I
  potency as a topoisomerase inhibitor relative to irinotecan: ~1,000 times

## COc1cccc2c1C(=O)c1c(O)c3c(c(O)c1C2=O)C[C@@](O)(C(=O)CO)C[C@@H]3O[C@H]1C[C@H](N)[C@H](O)[C@H](C)O1 [doxorubicin]
[2]
  reduction in tumor size after the regimen: 32%
